Test [1] relates to FaDu. In words: Cytotoxic activity against human FADU bulk cells incubated for 72 hrs by Cell-titer-Glo luminescence assay. In kind it is functional, cell-based.
Test [2] addresses AMP-activated protein kinase, AMPK (Homo sapiens) (UniProt P54646+O43741+P54619+Q9UGJ0+Q9Y478+Q13131+Q9UGI9). In words: Inhibition of AMPK in human HeLa cells assessed as kinase phosphorylation level at 5 uM incubated for 6 hrs by SDS-PAGE based chemiluminescence assay. In kind it is cell-based. Details: scale not given: the % may be the effect or the level left.
In test [3] the target is T1, Ribosomal protein S6 kinase (Homo sapiens) (UniProt P51812+Q9UBS0+O75676+Q15349+O75582+P23443+Q9UK32+Q15418). In words: Inhibition of RPS6 kinase in human HeLa cells assessed as p-RPS6 Ser235/236 phosphorylation level at 5 uM incubated for 6 hrs by SDS-PAGE based chemiluminescence assay. Type of test: cell-based. Details: scale not given: the % may be the effect or the level left.

The target in test [4] is T1, Ribosomal protein S6 kinase (Homo sapiens). Description: Inhibition of RPS6 kinase in human HeLa cells assessed as p-RPS6 Ser240/244 phosphorylation level at 5 uM incubated for 6 hrs by SDS-PAGE based chemiluminescence assay. Type of test: cell-based. Also noted: scale not given: the % may be the effect or the level left.
Test [5] relates to A549. In words: Cytotoxic activity against human A549 bulk cells incubated for 72 hrs by Cell-titer-Glo luminescence assay. Type of test: functional, cell-based. Particulars: A549, 72 h.
In test [6] the test system is ACHN. Description: Cytotoxic activity against human ACHN bulk cells incubated for 72 hrs by Cell-titer-Glo luminescence assay. Type of test: functional, cell-based.
The test system of test [7] is A549. In words: Cytotoxic activity against human A549 cancer stem cells incubated for 72 hrs by Cell-titer-Glo luminescence assay. Type of test: functional, cell-based. Particulars: A549, 72 h.
Test [8] has as its system FaDu. Description: Cytotoxic activity against human FADU cancer stem cells incubated for 72 hrs by Cell-titer-Glo luminescence assay. In kind it is functional, cell-based.
Test [9] concerns the target Serine/threonine-protein kinase RIO2 (Homo sapiens) (UniProt Q9BVS4). In words: Inhibition of N-terminal GST-fused full length human recombinant RIOK2 expressed in baculovirus Sf21 cells assessed as reduction in kinase auto-phosphorylation at 10 uM in presence of ATP incubated for 1 hr by ELISA method.
In test [10] the test system is ACHN. In words: Cytotoxic activity against human ACHN cancer stem cells incubated for 72 hrs by Cell-titer-Glo luminescence assay. In kind it is functional, cell-based.

Molecules are shown by their SMILES.

Drawing on ChEMBL document CHEMBL3727348, “3-(aryl or heteroaryl) methyleneindolin-2-one derivatives as inhibitors of cancer stem cell pathway kinases for the treatment of cancer” (2014), this text covers IC50, Activity and inhibition for 30 molecules.

Serine/threonine-protein kinase RIO2 (Homo sapiens), sequence (Q9BVS4 whole entry, looked up, the tested form may be a part): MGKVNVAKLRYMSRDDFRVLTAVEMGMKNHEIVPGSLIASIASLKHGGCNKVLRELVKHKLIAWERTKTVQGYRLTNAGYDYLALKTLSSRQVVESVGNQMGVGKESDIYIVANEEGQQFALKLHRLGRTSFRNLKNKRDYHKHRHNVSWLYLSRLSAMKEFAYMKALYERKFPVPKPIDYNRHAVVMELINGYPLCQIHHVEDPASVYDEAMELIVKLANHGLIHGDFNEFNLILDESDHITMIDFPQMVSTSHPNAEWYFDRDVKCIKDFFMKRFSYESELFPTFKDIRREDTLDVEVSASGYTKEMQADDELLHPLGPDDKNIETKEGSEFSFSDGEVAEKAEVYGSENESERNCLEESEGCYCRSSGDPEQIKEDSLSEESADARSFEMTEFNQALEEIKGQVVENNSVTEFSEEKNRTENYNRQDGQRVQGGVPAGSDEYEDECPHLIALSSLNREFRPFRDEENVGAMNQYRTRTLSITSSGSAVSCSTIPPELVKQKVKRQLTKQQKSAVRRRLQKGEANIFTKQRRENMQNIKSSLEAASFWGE

With `COc1ncccc1-c1cccc2c1/C(=C/c1[nH]c(C)cc1C)C(=O)N2`, in [1], the IC50 (commonly the concentration at which inhibition is half-maximal) was found to be 22.6 µM. Further, the Activity was found to be 105% in test [2], 67% in test [3] and 67% in test [4].

For the molecule `COc1ccc(-c2cccc3c2NC(=O)/C3=C\c2[nH]c(C)cc2C)cn1`, the IC50 in test [1] was 28.4 µM; in [5] it was 24.4 µM; in test [6], 28.3 µM; in [7], 43.4 µM. Also, the values for the Activity in test [2], in test [3] and in test [4] were 91%, 63% and 59%, respectively.

Regarding `CCN(CC)CCNC(=O)c1c(C)[nH]c(/C=C2\C(=O)Nc3ccc(-c4ccc(-c5cccs5)s4)cc32)c1C`, the IC50 in test [1] was 2.51 µM; in test [8], 0.83 µM. The Activity worked out at 21% in test [2], 5% in test [3] and 41% in test [4].

Turning to `Cc1[nH]c(/C=C2\C(=O)Nc3cc(-c4ccc(-c5ccccc5)s4)ccc32)c(C)c1C(=O)N1CCN(C)CC1`, the values for the Activity in [2], in test [3] and in test [4] were 108%, 36% and 68%, respectively.

As to `Cc1cc(C)c(/C=C2\C(=O)Nc3cccc(-c4cncnc4)c32)[nH]1`, the IC50 in test [1] came out at 39.7 µM; in [5] it was 16.3 µM; in [6], 16.8 µM. In addition, the Activity in test [2] turned out to be 198%; in test [3] it was 44%; in test [4], 43%.

Turning to `Cc1cc(C)c(/C=C2\C(=O)Nc3c2cccc3-c2cncc3ccccc23)[nH]1`, the IC50 was 25.8 µM in test [1], 19.7 µM in [5] and 21 µM in test [6]. The Activity in test [2] is 108%; in test [3], 86%; in [4] it was 83%.

Take `Cc1[nH]c(/C=C2\C(=O)Nc3cccc(-c4ccc(-c5ccccc5)cc4)c32)c(C)c1C(=O)N1CCN(C)CC1`: the IC50 worked out at 7.56 µM in test [1]; 21.5 µM in [5]; 14.9 µM in test [6]; 1.21 µM in test [8]; 5.76 µM in [7]. The Activity in test [2] was 105%; in test [3], 2%; in test [4], 36%.

In test [5], `Cc1cc(C)c(/C=C2\C(=O)Nc3c2cccc3-c2ccncc2)[nH]1` showed an IC50 of 23.5 µM. The figures for the Activity in test [2], in [3] and in [4] were 83%, 68% and 65%, respectively.

Consider `Cc1[nH]c(/C=C2\C(=O)Nc3ccc(-c4cnn(-c5ccccc5)c4)cc32)c(C)c1C(=O)NC1CNCC(c2ccccc2)C1` (centres undefined), for which the inhibition (in general, how much of the control response was suppressed) in test [9] is 69%.

Consider `CCN(CC)CCNC(=O)c1c(C)[nH]c(/C=C2\C(=O)Nc3cc(-c4ccc(-c5ccccc5)s4)ccc32)c1C`, for which it took 30.5 µM to reach half-maximal inhibition in [8] (IC50). For the same molecule, the figures for the Activity in [2], in [3] and in test [4] were 150%, 5% and 56%, respectively.

In test [8], `Cc1[nH]c(/C=C2\C(=O)Nc3cc(-c4csc(-c5ccccc5)n4)ccc32)c(C)c1C(=O)N1CCOCC1` yielded an IC50 of 41.9 µM. The Activity is 118% in test [2], 4% in test [3] and 44% in [4].

In the case of `Cc1[nH]c(/C=C2\C(=O)Nc3ccc(-c4cnn(-c5ccccc5)c4)cc32)c(C)c1C(=O)NCc1nc2ccccc2[nH]1`, the inhibition in test [9] stood at 79%.

Turning to `CCN(CC)CCNC(=O)c1c(C)[nH]c(/C=C2\C(=O)Nc3ccc(-c4ccc(-c5ccccc5)s4)cc32)c1C`, the IC50 in [1] stood at 4.74 µM; in [6], 7.6 µM; in [8], 1.2 µM. Moreover, the inhibition in [9] was 14%.

`CCN(CC)CCNC(=O)c1c(C)[nH]c(/C=C2\C(=O)Nc3ccc(-c4ccncc4)cc32)c1C`: the IC50 is 6.81 µM in test [1]; 7.07 µM in test [5]; 11.6 µM in test [6]; 16.2 µM in test [8]; 9.85 µM in test [7]; 2.14 µM in test [10].

With `O=C1Nc2ccc(-c3csc(C4CCNCC4)n3)cc2/C1=C/c1cc2ccccc2[nH]1`, the IC50 is 5.16 µM in [1]; 5.55 µM in [5]; 4.12 µM in test [6]; 0.76 µM in test [8]; 2.04 µM in [7]; 0.1 µM in test [10].

For `CCN(CC)CCNC(=O)c1c(C)[nH]c(/C=C2\C(=O)Nc3cc(-c4ccc(O)cc4C)ccc32)c1C`, the IC50 in test [1] turned out to be 2.14 µM; in test [5], 2.76 µM; in test [6], 2.53 µM; in [8] it was 1.54 µM; in test [7], 7.55 µM; in test [10], 2.17 µM.

For the molecule `CCN(CC)CCNC(=O)c1c(C)[nH]c(/C=C2\C(=O)Nc3ccc(-c4cnc5ccccn45)cc32)c1C`, the 50% inhibitory concentration (IC50) in [1] was determined as 4.63 µM; in [5], 5.86 µM; in test [6], 4.65 µM; in test [8], 17.6 µM; in test [7], 17.2 µM; in [10], 3.44 µM.

Take `CCN(CC)CCNC(=O)c1c(C)[nH]c(/C=C2\C(=O)Nc3ccc(-c4cncnc4)cc32)c1C`: the IC50 in test [1] came out at 4.55 µM; in [5] it was 7.33 µM; in test [6], 3.66 µM; in test [8], 10.1 µM; in test [7] it was 18 µM; in [10], 0.55 µM.

Turning to `CCN(CC)CCNC(=O)c1cc(C)c(/C=C2\C(=O)Nc3ccc(-c4csc(-c5ccccc5)n4)cc32)[nH]1`, the IC50 in [1] came out at 11.4 µM; in test [5], 4 µM; in test [6], 14.9 µM; in test [8], 3.13 µM; in [7], 26.7 µM; in [10], 4.04 µM.

`CCN(CC)CCNC(=O)c1c(C)[nH]c(/C=C2\C(=O)Nc3ccc(-c4csc(-n5ccnc5)n4)cc32)c1C`: the IC50 is 5.57 µM in test [1]; 6.16 µM in test [5]; 9.57 µM in test [6]; 21.7 µM in test [8]; 18.8 µM in [7]; 2.99 µM in test [10].

Regarding `Cc1[nH]c(/C=C2\C(=O)Nc3ccc(-c4nnc(-c5ccccc5)s4)cc32)c(C)c1C(=O)N1CCN(C)CC1`, the IC50 in test [1] came to 14.1 µM; in [5] it was 48.9 µM; in test [8], 0.23 µM. The inhibition in test [9] is 19%.

Take `COc1ncc(-c2cccc3c2/C(=C/c2[nH]c(C)cc2C)C(=O)N3)cn1`: the IC50 in [1] was found to be 35.3 µM; in [5], 21.1 µM; in test [6], 28.1 µM. The values for the Activity in test [2], in test [3] and in test [4] were 145%, 77% and 75%, respectively.

Turning to `Cc1cc(C)c(/C=C2\C(=O)Nc3ccc(-c4n[nH]c5ccccc45)cc32)[nH]1`, the IC50 in [1] is 4.43 µM; in [5] it was 6.45 µM; in test [6], 8.73 µM; in [8] it was 5.33 µM; in test [7], 7.28 µM; in test [10], 3.1 µM.

With `CCN(CC)CCNC(=O)c1c(C)[nH]c(/C=C2\C(=O)Nc3ccc(-c4cnc5cn[nH]c5c4)cc32)c1C`, the IC50 in [1] came out at 1.49 µM; in test [5], 3.24 µM; in [6], 2.74 µM; in test [8], 0.16 µM; in [7], 26.4 µM; in [10], 10.8 µM.

For `Cc1[nH]c(/C=C2\C(=O)Nc3ccc(-c4ccc(-c5ccccc5)s4)cc32)c(C)c1C(=O)N1CCN(C)CC1`, the IC50 in test [1] amounted to 25.4 µM; in test [8], 1.16 µM. For the same molecule, the inhibition in test [9] came out at 65%.

`CCN(CC)CCNC(=O)c1c(C)[nH]c(/C=C2\C(=O)Nc3cc(-c4cnc5ccccc5n4)ccc32)c1C`: the IC50 came to 7.45 µM in test [1]; 7.07 µM in test [5]; 10.9 µM in [6]; 2.24 µM in [8]; 42.6 µM in [7]; 6.97 µM in test [10].

For `CCN(CC)CCN(C)C(=O)c1c(C)[nH]c(/C=C2\C(=O)Nc3ccc(-c4csc(-c5ccccc5)n4)cc32)c1C`, the IC50 in [1] stood at 18.3 µM; in test [5], 9.94 µM; in [6] it was 11.3 µM; in test [8], 3.6 µM; in test [7], 10.5 µM; in test [10] it was 0.69 µM.

As for `CCN(CC)CCNC(=O)c1c(C)[nH]c(/C=C2\C(=O)Nc3ccc(-c4nccc5ccccc45)cc32)c1C`, the IC50 in [1] is 2.13 µM; in test [5] it was 3.18 µM; in test [6], 5.05 µM; in [8], 0.03 µM; in [7], 13.9 µM; in test [10], 0.71 µM.

Regarding `Cc1cc(C)c(/C=C2\C(=O)Nc3c2cccc3-c2cncnc2)[nH]1`, the IC50 turned out to be 28.1 µM in [1], 25.2 µM in test [5] and 26.9 µM in [6]. The Activity in test [2] was 113%; in test [3] it was 51%; in [4] it was 50%.

Regarding `Cc1ccc(-c2nc(-c3ccc4c(c3)/C(=C/c3[nH]c(C)c(C(=O)NCCN5CCCC5)c3C)C(=O)N4)cs2)cc1`, the IC50 in test [1] worked out at 4.22 µM; in test [5], 5.99 µM; in test [6] it was 2.32 µM; in [8], 0.31 µM; in test [7], 12.2 µM; in test [10] it was 0.14 µM.
